Source: PMC3674995, “Safety, Pharmacokinetic, and Efficacy Studies of Oral DB868 in a First Stage Vervet Monkey Model of Human African Trypanosomiasis” (PLoS Neglected Tropical Diseases, 2013)
“And” between values parts separate entries of the source, which are not always exact repeats. Identical values can stand only once. Like-named read-outs stand apart in the source and are kept apart here.

How the values were obtained:
[1] = set-up: method as in PMID 20721830; conditions: cited from earlier work
[2] = set-up: method as in earlier work; conditions: cited from earlier work
[3] = oral administration, cited from earlier work
[4] = test system: T. b. rhodesiense KETRI 2537; set-up: method as in PMID 19064893; conditions: oral, for 5 days; first stage HAT monkey model; cited from earlier work
[5] = Pharmacokinetics in uninfected vervet monkeys; conditions: for half-life: po, geometric mean terminal elimination half-life
[6] = test system: T. b. rhodesiense STIB900; set-up: method as in PMID 19620327; conditions: intraperitoneal administration; cited from earlier work
[7] = test system: T. b. rhodesiense STIB900; set-up: method as in PMID 19620327; conditions: in vitro; cited from earlier work
[8] = Metabolism of DB868 in vervet monkey liver microsomes; type: in vitro ADME; conditions: incubation of 10 µM DB868; HPLC/UV; formation confirmed by fluorescence and mass spectrometric detection
Protocol: DB868 metabolism was studied in male vervet monkey liver microsomes (custom-prepared by XenoTech, LLC, Lenexa, KS, USA) by adapting a previously published method. Briefly, incubation mixtures contained 10 µM DB868, 0.5 mg/mL monkey liver microsomes, and 3.3 mM MgCl2 in 100 mM phosphate buffer (pH 7.4). Reactions were initiated by the addition of NADPH (1 mM final concentration). Control incubations were carried out without NADPH, DB868, or liver microsomes. Aliquots (100 µL) of the reaction mixtures were removed at 0, 5, 10, 15, 30, 60 and 120 min and mixed with 100 µL of ice-cold acetonitrile. After centrifugation to pellet precipitated proteins, the supernatants were analyzed by HPLC/UV and fluorescence using the method previously described for pafuramidine (DB289) and furamidine (DB75). Metabolite identification was performed by comparing retention times to those of synthetic standards for M1 (DB1679), M2 (DB840), M3 (DB1712), and DB829. DB868 and its metabolites were quantified using a calibration curve (0.1–10 µM) generated using synthetic standards.

[9] = test system: T. b. brucei s427 trypanosomes; set-up: method as in PMID 21402852; conditions: 2.7 µM; cited from earlier work
T. b. brucei GVR35 = test system: T. b. brucei GVR35; set-up: method as in PMID 19620327; conditions: intraperitoneal administration; cited from earlier work
[10] = Pharmacokinetics in infected vervet monkeys (first stage HAT); type: in vivo, vervet monkey; conditions: for AUClast: last measurable concentration varied (2–133 days)
[11] = after final oral dose of DB868 10 mg/kg×10 days, uninfected, individual monkeys
[12] = after final oral dose of DB868 30 mg/kg×10 days, uninfected, individual monkeys
[13] = oral DB868 10 mg/kg group, infected
[14] = oral DB868 20 mg/kg group, infected
[15] = oral DB868 20 mg/kg×5 days, infected, individual monkeys

For CONC(=N)c1ccc(-c2ccc(-c3ccc(C(=N)NOC)cc3)o2)cc1 [pafuramidine, 2,5-bis(4-amidinophenyl)furan-bis-O-methylamidoxime], the liver injury ([1]; extended phase I clinical trial in humans) is given as “transient liver injury”, the “patients with unexpected severe kidney injury” value ([1]; five patients) is given as ~6% and the “increase in KIM-1” value ([2]; oral 12 mg/kg/day×28 days, one week post-LDD) is given as 13 fold. The “increase in ALT compared to untreated rats” value ([2]; rats, 12 mg/kg/day for 4 weeks) was 18 fold, the “classical kidney injury biomarkers, BUN and serum creatinine” value ([3]; mouse diversity panel) was “remained unchanged” and the “urinary kidney injury molecule-1 (KIM-1)” value ([3]; sensitive strains of 34 inbred mouse strains) was “marked elevations”. The “dose required to achieve complete cure” value [4] was 10 mg/kg.
For N=C(N)c1ccc(-c2ccc(-c3ccc(C(=N)N)cn3)o2)nc1 [DB829, 2,5-bis(5-amidino-2-pyridyl)furan], the “AUC0-∞” value [5, 11] was 3700 nmol/L•day (2×) and 4100 nmol/L•day and 2400 nmol/L•day, the AUClast [5, 11] was 3000 nmol/L•day and 2800 nmol/L•day and 2100 nmol/L•day (2×) and the “t1/2 (terminal elimination half-life)” value [5, 11] was 30 day (2×) and 55 day and 18 day. The “AUC0-∞” value [5, 12] was 5600 nmol·days/L and 7000 nmol·days/L and 6200 nmol·days/L and 12100 nmol·days/L, the AUClast [5, 12] was 4700 nmol·days/L and 5700 nmol·days/L and 4600 nmol·days/L and 7100 nmol·days/L and the concentration at 4 h ([5]; both, monkey, in vivo, 10 mg/kg, C4 h, plasma concentration at 4 h after final (10th) oral dose of DB868 10 mg/kg×10 days, uninfected, individual monkeys 643, 659, 675, 677) was 240 nM. The concentration at 4 h ([5]; both, monkey, in vivo, 10 mg/kg/day, geometric mean C4 h, oral DB868 10 mg/kg/day×10 days, uninfected, n = 4) was 185 nM, the concentration at 4 h ([5]; both, monkey, in vivo, 30 mg/kg, C4 h, plasma concentration at 4 h after final (10th) oral dose of DB868 30 mg/kg×10 days, uninfected, individual monkeys 546, 567, 668, 679) was 440 nM and the concentration at 24 h ([5]; both, monkey, in vivo, 30 mg/kg, C24 h, plasma, 24 h after final oral dose of DB868 30 mg/kg×10 days, uninfected, individual monkeys) was 360 nM. The concentration at 4 h ([5]; both, monkey, in vivo, 30 mg/kg/day, geometric mean C4 h, oral DB868 30 mg/kg/day×10 days, uninfected, n = 4) was 320 nM, the half-life ([5]; both, monkey, in vivo, 10 mg/kg/day, oral DB868 10 mg/kg/day×10 days, uninfected (second of 'respectively'; agrees with Table 1)) was 744 h and the half-life ([5]; both, monkey, in vivo, 30 mg/kg/day, oral DB868 30 mg/kg/day×10 days, uninfected (first of 'respectively'; agrees with Table 1)) was 696 h. The “geometric mean C4 h relative to IC50 (14 nmol/L) against T. b. rhodesiense STIB900” value ([5]; oral DB868 10 mg/kg/day×10 days, uninfected) was 13 fold, the “geometric mean C4 h relative to IC50 (14 nmol/L) against T. b. rhodesiense STIB900” value ([5]; oral DB868 30 mg/kg/day×10 days, uninfected) was 23 fold and the “time plasma concentrations remained >100 nmol/L after last DB868 dose” value ([5]; oral DB868, in some monkeys (Figures 6 and 8, uninfected and infected)) was “up to 7 days post-LDD”. The “geometric mean AUC0-∞, 30 mg/kg group relative to 10 mg/kg group” value ([5]; oral DB868×10 days, uninfected) was 2.2 fold, the “geometric mean AUClast, 30 mg/kg group relative to 10 mg/kg group” value ([5]; oral DB868×10 days, uninfected) was 2.2 fold and the C4 h ([5]; plasma concentration at 4 h after final (10th) oral dose of DB868 10 mg/kg×10 days, uninfected, individual monkeys 643, 659, 675, 677) was 160 nM and 180 nM and 170 nM. The C4 h ([5]; plasma concentration at 4 h after final (10th) oral dose of DB868 30 mg/kg×10 days, uninfected, individual monkeys 546, 567, 668, 679) was 290 nM and 300 nM and 270 nM, the C24 h ([5]; plasma, 24 h after final oral dose of DB868 10 mg/kg×10 days, uninfected, individual monkeys, BLQ = below limit of quantitation) was 140 nM and 260 nM and 120 nM and 170 nM and the C24 h ([5]; plasma, 24 h after final oral dose of DB868 30 mg/kg×10 days, uninfected, individual monkeys) was 210 nM and 280 nM and 340 nM. For the same compound, the curative [6] was 100%, the IC50 [7] was 14 nM and the “detection of active compound formed from DB868” value [8] was “at the limit of detection in UV mode”. For the same compound, the “exposure required to kill trypanosomes in culture” value [9] was 24 h, the curative (T. b. brucei GVR35) was 100% and the Cmax ([10]; after final oral dose of DB868 3 mg/kg×7 days, first stage HAT, individual monkeys 638, 643, read-out: Cmax) was 230 nM. For the same compound, the Cmax ([10]; after final oral dose of DB868 10 mg/kg×7 days, first stage HAT, individual monkeys 675, 691, read-out: Cmax) was 200 nM, the Tmax ([10]; after final oral dose of DB868 20 mg/kg×5 days, infected, individual monkeys) was 4.08 h and the Tmax ([10]; monkey, plasma, po, 3 mg/kg, oral DB868 3 mg/kg group, infected, read-out: median Tmax (converted)) was 4 h. The Cmax ([10]; monkey, plasma, po, 3 mg/kg/day, oral DB868 3 mg/kg/day×7 days, infected, read-out: median Cmax) was 170 nM, the Tmax ([10]; monkey, plasma, po, 10 mg/kg, oral DB868 10 mg/kg group, infected, read-out: median Tmax (converted)) was 24 h and the Cmax ([10]; monkey, plasma, po, 10 mg/kg/day, after final oral dose of DB868 10 mg/kg×7 days, first stage HAT, individual monkeys 675, 691, read-out: Cmax) was 210 nM. It also gave a Cmax ([10]; monkey, plasma, po, 10 mg/kg/day, oral DB868 10 mg/kg/day×7 days, infected, read-out: median Cmax) of 205 nM, a half-life ([10]; monkey, plasma, po, 10 mg/kg/day, oral DB868 10 mg/kg×7 days, infected, monkey 691, read-out: t1/2 (terminal elimination half-life) (converted)) of 600 h and a Tmax ([10]; monkey, plasma, po, 20 mg/kg, oral DB868 20 mg/kg group, infected, read-out: median Tmax (converted)) of 4 h. The Cmax ([10]; monkey, plasma, po, 20 mg/kg/day, after final oral dose of DB868 20 mg/kg×5 days, first stage HAT, individual monkeys 585, 658, read-out: Cmax) was 370 nM, the Tmax ([10]; monkey, plasma, po, 20 mg/kg/day, after final oral dose of DB868 20 mg/kg×5 days, infected, individual monkeys, read-out: Tmax (converted)) was 4.08 h and the Cmax ([10]; monkey, plasma, po, 20 mg/kg/day, oral DB868 20 mg/kg/day×5 days, infected, read-out: median Cmax) was 435 nM. For the same compound, the “median Cmax relative to IC50 (14 nmol/L) against T. b. rhodesiense STIB900” value (“median Cmax relative to IC50 (14 nmol/L)” for short) ([10]; oral DB868 3 mg/kg/day for 7 days, infected) was 12 fold, the AUClast ([10]; oral DB868 3 mg/kg×7 days, infected, individual monkeys) was 160 nmol·days/L and 950 nmol·days/L and the “mean AUClast relative to 3 mg/kg group” value [10, 13] was 7 fold. The “median Cmax relative to 3 mg/kg group” value [10, 13] was 1.2 fold, the “median Cmax relative to IC50 (14 nmol/L)” value ([10]; oral DB868 10 mg/kg/day for 7 days, infected) was 15 fold and the AUClast ([10]; oral DB868 10 mg/kg×7 days, infected, individual monkeys) was 4000 nmol·days/L and 3500 nmol·days/L. The “AUC0-∞” value ([10]; oral DB868 10 mg/kg×7 days, infected, monkey 691) was 3900 nmol·days/L, the “mean AUClast relative to 3 mg/kg group” value [10, 14] was 10 fold and the “median Cmax relative to 3 mg/kg group” value [10, 14] was 2.6 fold. For the same compound, the “median Cmax relative to IC50 (14 nmol/L)” value ([10]; oral DB868 20 mg/kg/day for 5 days, infected) was 31 fold, the “AUC0-∞” value [10, 15] was 10000 nmol·days/L and 5300 nmol·days/L and the “t1/2 (terminal elimination half-life)” value [10, 15] was 85 days and 24 days. The AUClast [10, 15] was 7300 nmol·days/L and 4100 nmol·days/L, the “median AUC0-∞ of 20 mg/kg group relative to monkey 691 (10 mg/kg group)” value ([10]; oral DB868, infected) was “twice” and the “median terminal elimination half-life of 20 mg/kg group relative to monkey 691 (10 mg/kg group)” value ([10]; oral DB868, infected) was “twice”.
